Reference: patent US9586949B2, “Aza-heteroaryl compounds as PI3K-gamma inhibitors” (Incyte Corporation, priority 2015, dated 2017)
Structures can show the parent of a compound that is named as a salt.

What was measured:
[1] = molecular target: PI3Kδ (p110δ/p85α) Recombinant Human Protein (Homo sapiens (Human), UniProt O00329); assay: PI3Kδ Scintillation Proximity Assay; type: biochemical; details: 20 μM PIP2, 2 μM ATP, 3.4 nM PI3Kδ, 120 min; read-out: PI3K-delta SPA IC50
From the text: [γ-^33P]ATP (10 mCi/mL) and Wheat Germ Agglutinin (WGA) YSi SPA Scintillation Beads was purchased from Perkin-Elmer (Waltham, Mass.). Lipid kinase substrate, D-myo-Phosphatidylinositol 4,5-bisphosphate (PtdIns(4,5)P2)D (+)-sn-1,2-di-O-octanoylglyceryl, 3-O-phospho linked (PIP2), CAS 204858-53-7, was purchased from Echelon Biosciences (Salt Lake City, Utah). PI3Kδ (p110δ/p85α) Recombinant Human Protein was purchased from Eurofins (St Charles, Mo.). ATP, MgCl2, DTT, EDTA, MOPS and CHAPS were purchased from Sigma-Aldrich (St. Louis, Mo.).
(§1) The kinase reaction was conducted in polystyrene 384-well Greiner Bio-one white plate from Thermo Fisher Scientific in a final volume of 25 μL. Inhibitors were first diluted serially in DMSO and added to the plate wells before the addition of other reaction components. The final concentration of DMSO in the assay was 2%. The PI3Kδ assay was carried out at room temperature in 20 mM MOPS, pH 6.7, 10 mM MgCl2, 5 mM DTT and CHAPS 0.03%. Reactions were initiated by the addition of ATP, the final reaction mixture consisted of 20 μM PIP2, 2 μM ATP, 0.5 μCi [γ-^33P] ATP, 3.4 nM PI3Kδ. Reactions were incubated for 120 min and terminated by the addition of 40 μL SPA beads suspended in quench buffer: 163 mM potassium phosphate pH 7.8, 20% glycerol, 25 mM EDTA. The final concentration of SPA beads is 1.0 mg/mL. After the plate sealing, plates were shaken overnight at room temperature and centrifuged at 1500 rpm for 10 min, the radioactivity of the product was determined by scintillation counting on Topcount (Perkin-Elmer). IC50 determination was performed by fitting the curve of percent of the solvent control activity versus the log of the inhibitor concentration using the GraphPad Prism 6.0 software.

[2] = molecular target: PI3Kγ (p110γ) Recombinant Human Protein (Homo sapiens (Human), UniProt P48736); assay: PI3K-γ Scintillation Proximity Assay; type: biochemical; details: 20 μM PIP2, 2 μM ATP, 13 nM PI3Kγ, 120 min; read-out: PI3K-gamma SPA IC50
Chain of PI3Kγ (p110γ) Recombinant Human Protein (P48736 whole entry): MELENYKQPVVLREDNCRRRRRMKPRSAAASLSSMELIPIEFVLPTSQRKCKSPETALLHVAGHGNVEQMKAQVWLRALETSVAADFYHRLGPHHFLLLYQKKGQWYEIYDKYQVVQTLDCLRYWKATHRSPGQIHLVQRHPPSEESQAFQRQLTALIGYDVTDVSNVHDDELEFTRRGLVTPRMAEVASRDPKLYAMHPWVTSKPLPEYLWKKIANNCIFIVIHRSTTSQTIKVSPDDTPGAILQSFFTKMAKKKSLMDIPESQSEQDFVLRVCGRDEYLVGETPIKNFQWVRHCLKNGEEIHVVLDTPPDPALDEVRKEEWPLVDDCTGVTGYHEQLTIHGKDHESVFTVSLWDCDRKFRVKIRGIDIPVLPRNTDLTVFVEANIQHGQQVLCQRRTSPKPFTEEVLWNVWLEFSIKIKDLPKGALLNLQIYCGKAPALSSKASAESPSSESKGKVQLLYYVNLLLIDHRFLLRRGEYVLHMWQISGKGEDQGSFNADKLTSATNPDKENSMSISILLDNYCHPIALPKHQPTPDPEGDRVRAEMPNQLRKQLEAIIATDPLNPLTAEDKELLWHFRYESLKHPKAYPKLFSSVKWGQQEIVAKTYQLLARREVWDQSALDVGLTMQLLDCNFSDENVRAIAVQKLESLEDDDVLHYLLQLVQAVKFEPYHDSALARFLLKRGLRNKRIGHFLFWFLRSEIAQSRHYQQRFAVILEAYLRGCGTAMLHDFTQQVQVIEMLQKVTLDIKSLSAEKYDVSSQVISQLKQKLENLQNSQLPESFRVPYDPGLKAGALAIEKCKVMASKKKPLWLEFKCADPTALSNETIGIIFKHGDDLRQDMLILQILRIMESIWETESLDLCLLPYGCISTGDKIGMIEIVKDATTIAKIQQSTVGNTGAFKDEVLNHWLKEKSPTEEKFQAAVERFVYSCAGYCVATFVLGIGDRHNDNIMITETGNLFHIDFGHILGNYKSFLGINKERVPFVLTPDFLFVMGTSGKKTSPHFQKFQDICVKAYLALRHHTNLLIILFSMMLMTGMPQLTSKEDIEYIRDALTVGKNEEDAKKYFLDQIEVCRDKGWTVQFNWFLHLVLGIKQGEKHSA
Procedure: [γ-^33P]ATP (10 mCi/mL) and Wheat Germ Agglutinin (WGA) YSi SPA Scintillation Beads was purchased from Perkin-Elmer (Waltham, Mass.). […] PI3Kγ (p110γ) Recombinant Human Protein was purchased from Life technology (Grand Island, N.Y.). ATP, MgCl2, DTT, EDTA, MOPS and CHAPS were purchased from Sigma-Aldrich (St. Louis, Mo.).
as §1, with “PI3Kγ” for “PI3Kδ”, “ATP, 3.4 nM PI3Kδ. Reactions were incubated for 120 min and terminated by the addition of 40 μL SPA beads suspended in quench buffer: 163 mM potassium phosphate pH 7.8, 20% glycerol, 25 mM EDTA.” left out

Chain of PI3Kδ (p110δ/p85α) Recombinant Human Protein (O00329 whole entry): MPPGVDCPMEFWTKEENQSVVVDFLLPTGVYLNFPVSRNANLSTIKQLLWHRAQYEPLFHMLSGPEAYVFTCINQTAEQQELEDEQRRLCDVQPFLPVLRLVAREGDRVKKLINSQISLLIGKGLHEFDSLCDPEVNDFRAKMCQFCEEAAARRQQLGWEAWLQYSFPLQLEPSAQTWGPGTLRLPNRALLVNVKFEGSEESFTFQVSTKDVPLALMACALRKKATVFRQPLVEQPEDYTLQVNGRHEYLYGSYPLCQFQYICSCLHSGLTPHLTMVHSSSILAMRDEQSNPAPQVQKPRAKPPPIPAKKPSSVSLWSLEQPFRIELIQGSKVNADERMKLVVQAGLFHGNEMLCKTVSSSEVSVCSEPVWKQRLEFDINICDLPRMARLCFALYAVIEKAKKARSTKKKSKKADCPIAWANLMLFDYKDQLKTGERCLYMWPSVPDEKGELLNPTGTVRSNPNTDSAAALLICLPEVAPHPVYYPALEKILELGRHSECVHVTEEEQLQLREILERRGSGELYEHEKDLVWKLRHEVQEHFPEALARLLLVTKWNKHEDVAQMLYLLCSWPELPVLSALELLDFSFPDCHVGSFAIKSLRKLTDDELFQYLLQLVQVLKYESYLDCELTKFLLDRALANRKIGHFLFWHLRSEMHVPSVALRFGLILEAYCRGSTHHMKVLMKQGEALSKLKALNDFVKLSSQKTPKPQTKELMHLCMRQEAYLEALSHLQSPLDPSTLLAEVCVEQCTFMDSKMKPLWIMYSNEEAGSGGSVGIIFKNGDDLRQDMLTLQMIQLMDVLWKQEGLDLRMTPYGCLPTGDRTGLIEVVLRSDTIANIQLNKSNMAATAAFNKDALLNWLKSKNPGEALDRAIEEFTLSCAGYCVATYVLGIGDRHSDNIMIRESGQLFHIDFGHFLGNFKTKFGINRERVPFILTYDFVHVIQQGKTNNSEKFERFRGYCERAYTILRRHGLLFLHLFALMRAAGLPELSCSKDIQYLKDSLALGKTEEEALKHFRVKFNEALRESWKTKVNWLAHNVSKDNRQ
Chain of PI3Kδ (p110δ/p85α) Recombinant Human Protein (P27986 whole entry partner): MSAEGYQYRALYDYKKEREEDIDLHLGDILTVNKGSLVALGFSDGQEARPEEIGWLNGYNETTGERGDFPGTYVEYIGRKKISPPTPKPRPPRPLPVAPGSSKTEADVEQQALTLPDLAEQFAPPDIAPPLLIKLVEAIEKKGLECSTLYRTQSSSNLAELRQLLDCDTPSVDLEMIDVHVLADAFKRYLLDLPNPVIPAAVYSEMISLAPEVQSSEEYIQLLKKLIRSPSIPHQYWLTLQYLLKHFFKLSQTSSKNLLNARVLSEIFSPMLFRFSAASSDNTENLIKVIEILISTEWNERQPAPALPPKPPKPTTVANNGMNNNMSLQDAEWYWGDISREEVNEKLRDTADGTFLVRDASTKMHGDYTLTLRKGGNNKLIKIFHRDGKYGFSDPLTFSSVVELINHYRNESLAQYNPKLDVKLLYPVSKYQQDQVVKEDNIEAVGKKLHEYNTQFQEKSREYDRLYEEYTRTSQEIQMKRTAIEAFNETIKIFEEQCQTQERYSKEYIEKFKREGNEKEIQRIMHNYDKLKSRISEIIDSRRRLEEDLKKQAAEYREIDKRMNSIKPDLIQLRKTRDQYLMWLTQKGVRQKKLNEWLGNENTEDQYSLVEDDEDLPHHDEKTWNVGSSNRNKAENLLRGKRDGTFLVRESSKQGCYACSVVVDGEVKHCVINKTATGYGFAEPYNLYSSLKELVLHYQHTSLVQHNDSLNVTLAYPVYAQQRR

Row | Structure (SMILES) | IC50 [1] [nM] | IC50 [2] [nM]
1 | COc1cncc(-c2ccc3nc(-c4ncc[nH]4)oc3c2)c1 [Example 1, 2-(1H-Imidazol-2-yl)-6-(5-methoxypyridin-3-yl)benzo[d]oxazole trifluoroacetate] | < 5000 | < 1000
2 | COc1cncc(-c2ccc3nc(-c4cnc[nH]4)oc3c2)c1 [Example 2, 2-(1H-Imidazol-5-yl)-6-(5-methoxypyridin-3-yl)benzo[d]oxazole trifluoroacetate] | < 5000 | < 5000
3 | COc1cncc(-c2ccc3nc(-c4ccc[nH]4)oc3c2)c1 [Example 3, 6-(5-Methoxypyridin-3-yl)-2-(1H-pyrrol-2-yl)benzo[d]oxazole trifluoroacetate] | < 5000 | < 5000
4 | COc1cncc(-c2ccc3nc(-c4nc5ccccc5[nH]4)oc3c2)c1 [Example 4, 2-(1H-Benzo[d]imidazol-2-yl)-6-(5-methoxypyridin-3-yl)benzo[d]oxazole trifluoroacetate] | < 5000 | < 250
5 | COc1cncc(-c2ccc3nc(-c4cc5ccccc5[nH]4)oc3c2)c1 [Example 5, 2-(1H-Indol-2-yl)-6-(5-methoxypyridin-3-yl)benzo[d]oxazole trifluoroacetate] | < 1000 | < 250
6 | COc1cncc(-c2ccc3nc(-c4nc5ccccc5[nH]4)sc3c2)c1 [Example 6, 2-(1H-Benzo[d]imidazol-2-yl)-6-(5-methoxypyridin-3-yl)benzo[d]thiazole trifluoroacetate] | ≥ 5000 | > 5000
7 | COc1cncc(-c2ccc3nc(-c4nc5ccccc5[nH]4)ccc3c2)c1 [Example 7, 2-(1H-Benzo[d]imidazol-2-yl)-6-(5-methoxypyridin-3-yl)quinoline] | ≥ 5000 | < 1000
8 | COc1cncc(-c2ccc3nc(-c4nc5ccc(Br)cc5[nH]4)oc3c2)c1 [Example 8, 2-(6-Bromo-1H-benzo[d]imidazol-2-yl)-6-(5-methoxypyridin-3-yl)benzo[d]oxazole] | – | < 1000
9 | COc1cncc(-c2ccc3nc(-c4nc5cc(F)ccc5[nH]4)oc3c2)c1 [Example 10, 2-(5-Fluoro-1H-benzo[d]imidazol-2-yl)-6-(5-methoxypyridin-3-yl)benzo[d]oxazole] | ≥ 5000 | < 1000
10 | COc1cncc(-c2ccc3nc(-c4nc5cc(C)ccc5[nH]4)oc3c2)c1 [Example 11, 6-(5-Methoxypyridin-3-yl)-2-(5-methyl-1H-benzo[d]imidazol-2-yl)benzo[d]oxazole] | < 5000 | < 250
11 | COc1cncc(-c2ccc3nc(-c4nc5c(C)cccc5[nH]4)oc3c2)c1 [Example 12, 6-(5-Methoxypyridin-3-yl)-2-(4-methyl-1H-benzo[d]imidazol-2-yl)benzo[d]oxazole] | ≥ 5000 | < 250
12 | Brc1ccc2nc(-c3nc4ccccc4[nH]3)oc2c1 [Example 13, 2-(1H-Benzo[d]imidazol-2-yl)-6-bromobenzo[d]oxazole] | ≥ 5000 | < 5000
13 | Cc1ncc(-c2ccc3nc(-c4nc5ccccc5[nH]4)oc3c2)cc1NS(=O)(=O)N(C)C [Example 22, N′-{5-[2-(1H-Benzimidazol-2-yl)-1,3-benzoxazol-6-yl]-2-methylpyridin-3-yl}-N,N-dimethylsulfamide] | < 250 | < 250
14 | CCS(=O)(=O)Nc1cc(-c2ccc3nc(-c4nc5ccccc5[nH]4)oc3c2)cnc1Cl [Example 26, N-(5-(2-(1H-Benzo[d]imidazol-2-yl)benzo[d]oxazol-6-yl)-2-chloropyridin-3-yl)ethanesulfonamide] | ≥ 5000 | < 250
15 | CCS(=O)(=O)Nc1cc(-c2ccc3nc(-c4nc5ccccc5[nH]4)oc3c2)cnc1F [Example 27, N-(5-(2-(1H-Benzo[d]imidazol-2-yl)benzo[d]oxazol-6-yl)-2-fluoropyridin-3-yl)ethanesulfonamide] | < 1000 | < 250
16 | Cc1ncc(-c2ccc3nc(-c4nc5ccccc5[nH]4)oc3c2)cc1NS(=O)(=O)c1ccc(F)cc1 [Example 28, N-(5-(2-(1H-Benzo[d]imidazol-2-yl)benzo[d]oxazol-6-yl)-2-methylpyridin-3-yl)-4-fluorobenzenesulfonamide] | < 250 | < 250
17 | O=S(=O)(Nc1cc(-c2ccc3nc(-c4nc5ccccc5[nH]4)oc3c2)cnc1Cl)c1ccc(F)cc1 [Example 29, N-(5-(2-(1H-Benzo[d]imidazol-2-yl)benzo[d]oxazol-6-yl)-2-chloropyridin-3-yl)-4-fluorobenzenesulfonamide] | < 250 | < 250

Next, values leading:

Row | IC50 [1] [nM] | IC50 [2] [nM] | Structure (SMILES)
18 | < 5000 | < 250 | Oc1cncc(-c2ccc3nc(-c4nc5ccccc5[nH]4)oc3c2)c1 [Example 14, 5-(2-(1H-Benzo[d]imidazol-2-yl)benzo[d]oxazol-6-yl)pyridin-3-ol]
19 | < 5000 | < 1000 | CC(C)Oc1cncc(-c2ccc3nc(-c4nc5ccccc5[nH]4)oc3c2)c1 [Example 15, 2-(1H-Benzo[d]imidazol-2-yl)-6-(5-isopropoxypyridin-3-yl)benzo[d]oxazole]
20 | < 1000 | < 250 | FC(F)Oc1cncc(-c2ccc3nc(-c4nc5ccccc5[nH]4)oc3c2)c1 [Example 16, 2-(1H-Benzo[d]imidazol-2-yl)-6-(5-(difluoromethoxy)pyridin-3-yl)benzo[d]oxazole]
21 | < 250 | < 250 | O=S(=O)(Nc1cncc(-c2ccc3nc(-c4nc5ccccc5[nH]4)oc3c2)c1)c1ccc(F)cc1 [Example 17, N-(5-(2-(1H-Benzo[d]imidazol-2-yl)benzo[d]oxazol-6-yl)pyridin-3-yl)-4-fluorobenzenesulfonamide]
22 | < 250 | < 250 | O=S(=O)(Nc1cncc(-c2ccc3nc(-c4nc5ccccc5[nH]4)oc3c2)c1)c1cccc(F)c1 [Example 19, N-(5-(2-(1H-Benzo[d]imidazol-2-yl)benzo[d]oxazol-6-yl)pyridin-3-yl)-3-fluorobenzenesulfonamide]
23 | < 1000 | < 250 | O=S(=O)(Nc1cncc(-c2ccc3nc(-c4nc5ccccc5[nH]4)oc3c2)c1)N1CCCCC1 [Example 20, N-(5-(2-(1H-Benzo[d]imidazol-2-yl)benzo[d]oxazol-6-yl)pyridin-3-yl)piperidine-1-sulfonamide]
24 | < 1000 | < 250 | CN(C)S(=O)(=O)Nc1cncc(-c2ccc3nc(-c4nc5ccccc5[nH]4)oc3c2)c1 [Example 21, N′-{5-[2-(1H-Benzimidazol-2-yl)-1,3-benzoxazol-6-yl]-pyridin-3-yl}-N,N-dimethylsulfamide]
25 | < 250 | < 250 | CN(C)S(=O)(=O)Nc1cc(-c2ccc3nc(-c4nc5ccccc5[nH]4)oc3c2)cnc1F [Example 23, N′-{5-[2-(1H-Benzimidazol-2-yl)-1,3-benzoxazol-6-yl]-2-fluoropyridin-3-yl}-N,N-dimethylsulfamide]
26 | < 5000 | < 250 | CC(C)S(=O)(=O)Nc1cncc(-c2ccc3nc(-c4nc5ccccc5[nH]4)oc3c2)c1 [Example 24, N-(5-(2-(1H-Benzo[d]imidazol-2-yl)benzo[d]oxazol-6-yl)pyridin-3-yl)propane-2-sulfonamide]
27 | < 250 | < 250 | CCS(=O)(=O)Nc1cc(-c2ccc3nc(-c4nc5ccccc5[nH]4)oc3c2)cnc1C [Example 25, N-(5-(2-(1H-Benzo[d]imidazol-2-yl)benzo[d]oxazol-6-yl)-2-methylpyridin-3-yl)ethanesulfonamide]
